Experimental findings from PubChem BioAssay (NCI) are described below.

Some test systems named below: LOX IMVI melanoma; T-47D breast; SNB-75 CNS; HS 578T breast; CCRF-CEM leukemia; MDA-N; HL-60(TB) leukemia; HOP-62 NSCLC; HCC-2998 colon; HT29 colon; SF-539 CNS; BT-549 breast; SK-MEL-28 melanoma; NCI-H23 lung; A498 renal.
Experiment in all cases: inhibition of tumour cell growth, NCI panel, 48 h

SMILES strings stand for the structures.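 Where inhibition never reached the appropriate level, the endpoint shown equals the highest concentration tested. Otherwise, values were interpolated linearly from a five-concentration, 48-hour dose response in 96-well plates. Definition used: TGI = concentration required for complete inhibition of growth.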

In the case of `c1ccc2c(OCC3CO3)ccc(OCC3CO3)c2c1` (stereo not given), the TGI in the test with LOX IMVI melanoma worked out at 2.08 µM; in the test on T-47D breast, 15.4 µM; in the test on SNB-75 CNS, 28.4 µM; in the test with HS 578T breast, 9.73 µM; with CCRF-CEM leukemia, 11.2 µM; with MDA-N, 13 µM. Moreover, the TGI was determined as 2.4 µM in the test on HL-60(TB) leukemia; 10.9 µM in the test with HOP-62 NSCLC; 24.1 µM in the test on HCC-2998 colon; 17.5 µM in the test with HT29 colon; 4.8 µM in the test on SF-539 CNS; 18.8 µM with BT-549 breast. For the same compound, the TGI was 21.5 µM in the test on SK-MEL-28 melanoma, 6.67 µM with NCI-H23 lung and 33.9 µM in the test on A498 renal.

For `COc1ccc(OC)c2c(=O)cc(-c3ccccc3)[nH]c12`, the TGI in the test with LOX IMVI melanoma, in the test with T-47D breast, with SNB-75 CNS, with HS 578T breast, with CCRF-CEM leukemia and in the test on MDA-N was greater than 100 µM throughout. Further, the TGI in the test with HL-60(TB) leukemia, in the test on HOP-62 NSCLC, with HCC-2998 colon, in the test with HT29 colon, in the test on BT-549 breast and in the test on SK-MEL-28 melanoma was greater than 100 µM in each case. In addition, the TGI in the test with NCI-H23 lung and in the test with A498 renal was greater than 100 µM throughout.

`CC(=O)NNc1nc(C)c(C(/C=C/c2ccccc2O)=N/NC(=O)c2ccncc2)s1`: the TGI in the test with LOX IMVI melanoma, with T-47D breast, with SNB-75 CNS, in the test on HS 578T breast, in the test with CCRF-CEM leukemia and with MDA-N was greater than 100 µM in each case. Besides, the TGI with HL-60(TB) leukemia, in the test with HOP-62 NSCLC, in the test on HCC-2998 colon, in the test with HT29 colon, in the test with SF-539 CNS and with BT-549 breast was greater than 100 µM in each case. The TGI in the test on SK-MEL-28 melanoma, with NCI-H23 lung and with A498 renal was greater than 100 µM throughout.

Turning to `CC1=CC[C@@]2(C)[C@@H]([C@@H]1C)[C@H]1CC[C@@H]3[C@@]4(C)CC[C@H](O)C(C)(C)[C@@H]4CC[C@@]3(C)[C@]1(C)C[C@@H]2O`, the TGI was 16 µM in the test with LOX IMVI melanoma; greater than 74.9 µM with T-47D breast; greater than 100 µM in the test on SNB-75 CNS; greater than 74 µM in the test on HS 578T breast; greater than 53.1 µM in the test with CCRF-CEM leukemia; greater than 55.4 µM in the test on MDA-N. Besides, the TGI is greater than 100 µM in the test with HL-60(TB) leukemia; 38.6 µM with HOP-62 NSCLC; 37.9 µM in the test with HCC-2998 colon; 46 µM in the test on HT29 colon; greater than 55.7 µM with SF-539 CNS; greater than 64.3 µM in the test on BT-549 breast. In addition, the TGI is 13.9 µM in the test on SK-MEL-28 melanoma, greater than 55.1 µM in the test on NCI-H23 lung and greater than 39.8 µM in the test with A498 renal.

As for `CCOC(=O)C(NC(=O)NCc1ccc(F)cc1)C(F)(F)F` (stereo not given), the TGI with LOX IMVI melanoma, in the test with T-47D breast, with SNB-75 CNS, in the test with HS 578T breast, in the test with CCRF-CEM leukemia and with MDA-N was greater than 100 µM each time. The TGI with HL-60(TB) leukemia, with HCC-2998 colon, in the test on HT29 colon, in the test with SF-539 CNS, in the test with BT-549 breast and in the test on SK-MEL-28 melanoma was greater than 100 µM in each case. The TGI in the test with NCI-H23 lung and with A498 renal was greater than 100 µM each time.

Regarding `CC1=C(C#N)C(=O)N(/N=C/c2ccc(Cl)cc2)C(=O)/C1=c1\o/c(=C2/C(=O)N(/N=C/c3ccc(Cl)cc3)C(=O)C(C#N)=C2C)c2nccnc12`, the TGI in the test on LOX IMVI melanoma is greater than 100 µM; in the test on T-47D breast it was greater than 100 µM; in the test on SNB-75 CNS, 85.3 µM; in the test with HS 578T breast, greater than 100 µM; in the test on CCRF-CEM leukemia, greater than 100 µM; in the test on MDA-N it was greater than 100 µM. Besides, the TGI in the test with HL-60(TB) leukemia, with HCC-2998 colon, with HT29 colon, with SF-539 CNS, with BT-549 breast and in the test with SK-MEL-28 melanoma was greater than 100 µM each time. Moreover, the TGI in the test with NCI-H23 lung and in the test on A498 renal was greater than 100 µM in each case.

As for `COc1ccc2c(c1)-c1c(c3ccccc3n1CCN1CCCCC1)CC2`, the TGI is 33.3 µM in the test on LOX IMVI melanoma; greater than 94.4 µM in the test with T-47D breast; greater than 100 µM in the test on SNB-75 CNS; greater than 65.7 µM in the test with HS 578T breast; 74 µM in the test on CCRF-CEM leukemia; 67.5 µM in the test with MDA-N. Also, the TGI in the test on HL-60(TB) leukemia was 20.4 µM; in the test with HOP-62 NSCLC, greater than 63.1 µM; in the test with HCC-2998 colon it was 19.2 µM; in the test on HT29 colon, 24.5 µM; in the test on SF-539 CNS it was 39.3 µM; with BT-549 breast, greater than 71 µM. Besides, the TGI in the test on SK-MEL-28 melanoma is 99.2 µM; with NCI-H23 lung, 38.8 µM; with A498 renal, greater than 100 µM.

For the compound `O=c1[nH]c2nccn2c(Cl)c1Br`, the TGI with LOX IMVI melanoma is 34.4 µM; with T-47D breast, 67.8 µM; in the test on SNB-75 CNS, 77.8 µM; with HS 578T breast, 66 µM; in the test on CCRF-CEM leukemia it was 46.7 µM; in the test with MDA-N, 45.8 µM. Further, the TGI was 33.5 µM with HL-60(TB) leukemia; greater than 100 µM with HOP-62 NSCLC; 36 µM in the test on HCC-2998 colon; 48.8 µM in the test on HT29 colon; greater than 100 µM in the test on SF-539 CNS; 47.2 µM with BT-549 breast. Further, the TGI was 36 µM in the test on SK-MEL-28 melanoma, 36.3 µM in the test on NCI-H23 lung and greater than 100 µM in the test on A498 renal.

In the case of `c1ccc2c(c1)n1c(N3CCOCC3)[n+]3ccccc3c1c1c3cccc[n+]3c(N3CCOCC3)n21`, the TGI in the test with LOX IMVI melanoma, with T-47D breast, in the test with SNB-75 CNS, with HS 578T breast, with CCRF-CEM leukemia and in the test with MDA-N was greater than 100 µM throughout. Also, the TGI in the test with HL-60(TB) leukemia, in the test with HCC-2998 colon, with SF-539 CNS, in the test with BT-549 breast, with SK-MEL-28 melanoma and in the test with NCI-H23 lung was greater than 100 µM each time. For the same compound, the TGI in the test on A498 renal was greater than 100 µM.
